In publication PMC12264551 (Molecular Pharmacology, 2025):

What was measured:
VPAC1R [1] = target: T1, VPAC1R (Homo sapiens, UniProt P32241); assay: Live cell cAMP accumulation (GloSensor), COS-7 cells transfected with VPAC1R; assay type: cell-based; design: host or cells: COS-7; settings: ATP […] + VIP 0.1 nM
T1 sequence (P32241 31-457): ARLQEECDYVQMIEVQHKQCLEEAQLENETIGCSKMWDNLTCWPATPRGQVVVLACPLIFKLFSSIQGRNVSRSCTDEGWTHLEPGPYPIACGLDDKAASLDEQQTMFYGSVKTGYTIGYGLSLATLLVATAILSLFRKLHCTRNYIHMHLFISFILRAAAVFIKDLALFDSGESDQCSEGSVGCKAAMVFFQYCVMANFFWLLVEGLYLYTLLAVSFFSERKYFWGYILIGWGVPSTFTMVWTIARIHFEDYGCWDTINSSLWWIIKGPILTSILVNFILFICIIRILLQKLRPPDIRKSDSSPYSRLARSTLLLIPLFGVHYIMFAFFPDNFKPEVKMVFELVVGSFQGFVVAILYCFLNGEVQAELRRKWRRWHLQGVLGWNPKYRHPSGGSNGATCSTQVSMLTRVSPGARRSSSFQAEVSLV

VPAC2R = target: T2, VPAC2R (Homo sapiens, UniProt P41587); assay: Live cell cAMP accumulation (GloSensor), COS-7 cells transfected with VPAC2R; assay type: cell-based
T2 construct: host or cells: COS-7
T2 sequence (P41587 24-438): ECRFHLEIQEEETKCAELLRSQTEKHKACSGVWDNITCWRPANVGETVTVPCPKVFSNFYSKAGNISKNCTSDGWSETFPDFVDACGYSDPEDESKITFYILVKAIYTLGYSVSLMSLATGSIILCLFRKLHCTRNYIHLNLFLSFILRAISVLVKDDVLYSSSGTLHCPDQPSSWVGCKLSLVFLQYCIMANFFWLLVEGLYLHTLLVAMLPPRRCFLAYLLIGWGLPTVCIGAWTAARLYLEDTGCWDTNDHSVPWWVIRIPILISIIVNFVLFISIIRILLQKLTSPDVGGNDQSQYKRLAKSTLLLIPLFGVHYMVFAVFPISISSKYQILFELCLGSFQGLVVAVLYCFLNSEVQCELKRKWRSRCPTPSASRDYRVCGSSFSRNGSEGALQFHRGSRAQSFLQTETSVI

[2] = target: T3, CRLR + RAMP2 (adrenomedullin 1 receptor) (Homo sapiens, UniProt O60895+Q16602); assay: Live cell cAMP accumulation (GloSensor), COS-7 cells transfected with CRLR + RAMP2; assay type: cell-based; settings: ATP […] + CGRP 10 nM, RAMP2, COS-7
T3 construct: RAMP plasmid gift of Dr Patrick Sexton; host or cells: COS-7

[3] = target: T4, CRLR + RAMP1 (CGRP receptor) (Homo sapiens, UniProt O60894+Q16602); assay: Live cell cAMP accumulation (GloSensor), COS-7 cells transfected with CRLR + RAMP1; assay type: cell-based; settings: RAMP1, COS-7
T4 construct: RAMP plasmid gift of Dr Patrick Sexton; host or cells: COS-7

calcitonin receptor [4] = target: T5, calcitonin receptor (Homo sapiens, UniProt P30988); assay: Live cell cAMP accumulation (GloSensor), UMR-106 cells transfected with calcitonin receptor; assay type: cell-based; design: host or cells: UMR-106 (rat osteoblast-like) in A1; COS-7 (African monkey kidney) in A3; settings: ATP […] + calcitonin 1 nM
T5 sequence (P30988 25-474): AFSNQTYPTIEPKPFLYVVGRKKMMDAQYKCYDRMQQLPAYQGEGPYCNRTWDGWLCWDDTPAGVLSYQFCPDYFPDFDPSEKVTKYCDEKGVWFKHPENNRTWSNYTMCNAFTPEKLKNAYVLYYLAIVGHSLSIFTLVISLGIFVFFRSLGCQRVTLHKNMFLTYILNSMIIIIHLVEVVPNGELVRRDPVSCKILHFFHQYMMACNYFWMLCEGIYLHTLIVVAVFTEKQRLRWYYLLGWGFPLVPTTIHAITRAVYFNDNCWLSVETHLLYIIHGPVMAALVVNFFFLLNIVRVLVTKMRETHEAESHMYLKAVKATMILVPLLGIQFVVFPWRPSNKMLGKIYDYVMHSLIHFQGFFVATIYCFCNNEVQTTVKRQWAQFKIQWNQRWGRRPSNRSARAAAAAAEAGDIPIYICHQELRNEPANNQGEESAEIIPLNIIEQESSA

VPAC1R [5] = target: T1, VPAC1R; assay: Live cell cAMP accumulation (GloSensor), SaOS-2 cells with endogenous VPAC1R; assay type: cell-based; design: SaOS-2 cells endogenously express VPAC1R; endogenous in cells; host or cells: SaOS-2; settings: ATP […] + VIP 1 nM
calcitonin receptor [6] = target: T5, calcitonin receptor; assay: Live cell cAMP accumulation (GloSensor), COS-7 cells transfected with calcitonin receptor; assay type: cell-based; design: host or cells: COS-7 (African monkey kidney) in A3; settings: ATP […] + calcitonin 1 nM
PTH1R = settings: ref Kim et al, 2018, cited from earlier work
Description: Extracellular nucleotides are known for their ability to act as purinoceptor agonists ([Burnstock, 2007]).

PAC1R = target: T6, PAC1R (Homo sapiens, UniProt P41586); assay: Live cell cAMP accumulation (GloSensor), COS-7 cells transfected with PAC1R; assay type: cell-based; settings: ATP […] + PACAP 0.1 nM
T6 construct: host or cells: COS-7
T6 sequence (P41586 21-468): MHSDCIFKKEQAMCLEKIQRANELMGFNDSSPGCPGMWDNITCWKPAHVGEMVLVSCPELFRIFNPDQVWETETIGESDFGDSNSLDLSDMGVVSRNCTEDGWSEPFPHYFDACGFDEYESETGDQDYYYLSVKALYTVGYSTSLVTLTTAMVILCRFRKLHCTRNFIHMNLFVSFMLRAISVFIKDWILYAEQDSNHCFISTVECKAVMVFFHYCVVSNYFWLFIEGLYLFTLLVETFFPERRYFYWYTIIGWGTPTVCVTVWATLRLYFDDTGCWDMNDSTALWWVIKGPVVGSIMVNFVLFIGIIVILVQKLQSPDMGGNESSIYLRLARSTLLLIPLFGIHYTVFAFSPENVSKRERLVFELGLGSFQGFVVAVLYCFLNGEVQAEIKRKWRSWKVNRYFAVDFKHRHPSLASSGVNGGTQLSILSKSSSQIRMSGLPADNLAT

class B GPCRs = assay: Signaling of class B GPCRs tested (summary over receptors); assay type: cell-based; settings: CMP in place of ATP
Description: Cells were treated with IBMX (200–500 μM) and were further incubated for 20 minutes at room temperature. […] The emitted luminescence was measured at room temperature with a 1-second integration time at 1.5-minute intervals for a total of 45 minutes.
Data shown are means ± SEM.
To assess the time-to-maximum-slope (ie, “lag time”) for each time-course curve, we determined the time elapsed from the addition of agonist (time 0) to the first data point of the maximum slope. This procedure is illustrated in Supplemental Fig. 1.

T4 sequence (Q16602 23-461): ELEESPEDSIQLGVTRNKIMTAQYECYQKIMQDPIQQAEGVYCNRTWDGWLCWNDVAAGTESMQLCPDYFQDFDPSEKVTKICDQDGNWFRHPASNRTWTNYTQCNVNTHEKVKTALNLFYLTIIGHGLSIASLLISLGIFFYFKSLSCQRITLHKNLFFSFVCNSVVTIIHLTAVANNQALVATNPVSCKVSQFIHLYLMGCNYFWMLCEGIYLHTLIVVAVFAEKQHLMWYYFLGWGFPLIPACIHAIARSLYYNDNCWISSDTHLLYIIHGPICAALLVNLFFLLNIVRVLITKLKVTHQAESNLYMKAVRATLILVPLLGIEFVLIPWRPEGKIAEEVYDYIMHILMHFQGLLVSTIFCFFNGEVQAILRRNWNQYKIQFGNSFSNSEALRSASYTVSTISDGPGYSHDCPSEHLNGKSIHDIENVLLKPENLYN
T4 sequence (O60894 27-148): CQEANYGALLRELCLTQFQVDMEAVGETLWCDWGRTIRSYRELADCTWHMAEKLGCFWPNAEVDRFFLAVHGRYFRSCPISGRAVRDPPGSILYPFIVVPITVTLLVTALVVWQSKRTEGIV
T3 sequence (Q16602 23-461): as the sequence (Q16602 23-461) above
T3 sequence (O60895 43-175): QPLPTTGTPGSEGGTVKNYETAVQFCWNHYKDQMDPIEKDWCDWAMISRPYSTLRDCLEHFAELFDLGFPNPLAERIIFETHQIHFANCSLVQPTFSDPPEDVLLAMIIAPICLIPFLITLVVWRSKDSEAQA

Nc1ncnc2c1ncn2[C@@H]1O[C@H](COP(=O)(O)OP(=O)(O)OP(=O)(O)O)[C@@H](O)[C@H]1O [ATP, Adenosine 5'-triphosphate]
effect on VIP-induced cAMP accumulation (VPAC1R [1]): markedly enhanced | effect on VIP-induced cAMP accumulation (VPAC2R; ATP […] + VIP 0.1 nM): markedly enhanced | effect on CGRP-induced cAMP accumulation [2]: markedly enhanced | Hill coefficient / slope factor ([3]; ATP + CGRP 10 nM, 4-parameter fit, n = 3): 3.2 | effect on CGRP-induced cAMP accumulation ([3]; ATP […] + CGRP 10 nM): markedly enhanced | EC50 ([3]; EC50 of ATP for potentiation of CGRP signaling, ATP + CGRP 10 nM, 4-parameter fit, n = 3): 500 µM | effect on calcitonin-induced cAMP accumulation (calcitonin receptor [4]): markedly enhanced | effect on VIP-induced cAMP accumulation (VPAC1R [5]): enhanced VIP-induced cAMP accumulation | effect on rate of calcitonin-induced cAMP accumulation (calcitonin receptor [6]): markedly enhanced | effect on PTH1R signaling in absence of added agonist (PTH1R; extracellular ATP alone): no effect on PTH1R signaling in the absence of added agonist | effect on agonist-induced cAMP elevation and β-arrestin recruitment (PTH1R; extracellular ATP with PTH1R agonist): strongly enhance | effect on PACAP-induced cAMP accumulation (PAC1R): markedly enhanced

Nc1ccn([C@@H]2O[C@H](COP(=O)(O)O)[C@@H](O)[C@H]2O)c(=O)n1 [CMP, cytidine 5'-monophosphate]
enhancing effect of ATP (class B GPCRs): mimicked

CC[C@H](C)[C@H](NC(=O)[C@H](CO)NC(=O)[C@H](CC(N)=O)NC(=O)[C@H](CC(C)C)NC(=O)[C@H](Cc1ccc(O)cc1)NC(=O)[C@H](CCCCN)NC(=O)[C@H](CCCCN)NC(=O)[C@@H](NC(=O)[C@H](C)NC(=O)[C@H](CCSC)NC(=O)[C@H](CCC(N)=O)NC(=O)[C@H](CCCCN)NC(=O)[C@H](CCCNC(=N)N)NC(=O)[C@H](CC(C)C)NC(=O)[C@H](CCCNC(=N)N)NC(=O)[C@@H](NC(=O)[C@H](Cc1ccc(O)cc1)NC(=O)[C@H](CC(N)=O)NC(=O)[C@H](CC(=O)O)NC(=O)[C@@H](NC(=O)[C@H](Cc1ccccc1)NC(=O)[C@@H](NC(=O)[C@H](C)NC(=O)[C@H](CC(=O)O)NC(=O)[C@H](CO)NC(=O)[C@@H](N)Cc1c[nH]cn1)C(C)C)[C@@H](C)O)[C@@H](C)O)C(C)C)C(=O)N[C@@H](CC(C)C)C(=O)N[C@@H](CC(N)=O)C(N)=O [VIP, vasoactive intestinal peptide]
Normalized Maximum (VPAC2R; VIP + vehicle, Fig. 6H, VPAC2R, fraction of greatest slope, ± SEM, n = 3-5): 0.94 ± 0.01
